Assay results reported in patent publication US20100099561A1, “HETEROBICYCLIC ALKYLTHIO-BRIDGED ISOXAZOLINES” (E.I. DU PONT DE NEMOURS AND COMPANY, priority 2008, published 2010).

Experiments:
Type in all cases: in vivo
[1] = tested on: lambsquarters (Chenopodium album); assay: Test B preemergence, lambsquarters; settings: scale 0 to 100
Excerpt: (§1) Seeds of plant species selected from blackgrass (Alopecurus myosuroides), downy bromegrass (Bromus tectorum), green foxtail (Setaria viridis), Italian ryegrass (Lolium multiflorum), wheat (Triticum aestivum), wild oat (Avena fatua), catchweed bedstraw (Galium aparine), bermudagrass (Cynodon dactylon), Surinam grass (Brachiaria decumbens), cocklebur (Xanthium strumarium), corn (Zea mays), large crabgrass (Digitaria sanguinalis), woolly cupgrass (Eriochloa villosa), giant foxtail (Setaria faberii), goosegrass (Eleusine indica), johnsongrass (Sorghum halepense), kochia (Kochia scoparia), lambsquarters (Chenopodium album), morningglory (Ipomoea coccinea), nightshade (eastern black nightshade, Solanum ptycanthum), yellow nutsedge (Cyperus esculentus), pigweed (Amaranthus retroflexus), ragweed (common ragweed, Ambrosia elatior), soybean (Glycine max), sunflower (common oilseed sunflower, Helianthus annuus), Russian thistle (Salsola kali), and velvetleaf (Abutilon theophrasti) were planted into a blend of loam soil and sand and treated preemergence with test compounds formulated in a non-phytotoxic solvent mixture which included a surfactant. Treated plants and controls were maintained in a greenhouse for 13 to 15 days, after which time all species were compared to controls and visually evaluated. Plant response ratings, summarized in Table B, are based on a scale of 0 to 100 where 0 is no effect and 100 is complete control. A dash (-) response means no test result.

[2] = tested on: velvetleaf (Abutilon theophrasti); assay: Test A postemergence, velvetleaf; settings: 0 to 100 scale (0 no effect, 100 complete control)
How it was run: (§2)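 Visual injury scored 0 (no effect) to 100 (complete control) against untreated plants roughly ten days after greenhouse treatment. Postemergence sprays hit one- to two-leaf plants 2–10 cm high; preemergence was a directed spray onto loam–sand soil, both using surfactant-containing solvent formulations.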

[3] = tested on: pigweed (Amaranthus retroflexus); assay: Test A postemergence, pigweed; settings: 0 to 100 scale (0 no effect, 100 complete control)
How it was run: as §2

[4] = tested on: large crabgrass (Digitaria sanguinalis); assay: Test B preemergence, large crabgrass; settings: scale 0 to 100
Excerpt: as §1

[5] = tested on: large crabgrass (Digitaria sanguinalis); assay: Test A postemergence, large crabgrass; settings: 0 to 100 scale (0 no effect, 100 complete control)
How it was run: as §2

[6] = tested on: wheat (Triticum aestivum); assay: Test B preemergence, wheat; settings: Preemergence, scale 0 to 100
Excerpt: as §1

[7] = tested on: ragweed (common ragweed, Ambrosia elatior); assay: Test B preemergence, ragweed; settings: scale 0 to 100
Excerpt: as §1

[8] = tested on: Italian ryegrass (Lolium multiflorum); assay: Test B preemergence, Italian ryegrass; settings: Preemergence, scale 0 to 100
Excerpt: as §1

[9] = tested on: blackgrass (Alopecurus myosuroides); assay: Test B preemergence, blackgrass; settings: scale 0 to 100
Excerpt: as §1

[10] = tested on: wheat (Triticum aestivum); assay: Test A postemergence, wheat; settings: 0 to 100 scale (0 no effect, 100 complete control)
How it was run: as §2

rice (Oryza sativa) = assay: Test B flooded paddy test, rice; settings: Flood, scale 0 to 100
How it was run: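 Rice, umbrella sedge, ducksalad and barnyardgrass at 2-leaf stage; pots flooded to 3 cm, compounds applied into paddy water, depth held throughout. Greenhouse 13 to 15 days, then visual rating vs untreated controls on 0–100 scale (0 no effect, 100 complete control); dash means no test result.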

[11] = tested on: morningglory (Ipomoea spp.); assay: Test A preemergence, morningglory; settings: 0 to 100 scale (0 no effect, 100 complete control)
How it was run: as §2

[12] = tested on: morningglory (Ipomoea spp.); assay: Test A postemergence, morningglory; settings: 0 to 100 scale (0 no effect, 100 complete control)
How it was run: as §2

[13] = tested on: bermudagrass (Cynodon dactylon); assay: Test B preemergence, bermudagrass; settings: scale 0 to 100
Excerpt: as §1

[14] = tested on: morningglory (Ipomoea coccinea); assay: Test B preemergence, morningglory; settings: scale 0 to 100
Excerpt: as §1

corn (Zea mays) = assay: Test B preemergence, corn; settings: scale 0 to 100
Excerpt: as §1

[15] = tested on: goosegrass (Eleusine indica); assay: Test B preemergence, goosegrass; settings: scale 0 to 100
Excerpt: as §1

[16] = tested on: woolly cupgrass (Eriochloa villosa); assay: Test B preemergence, woolly cupgrass; settings: scale 0 to 100
Excerpt: as §1

[17] = tested on: wheat (Triticum aestivum); assay: Test A preemergence, wheat; settings: 0 to 100 scale (0 no effect, 100 complete control)
How it was run: as §2

Compound: CC1(C)CC(S(=O)(=O)Cc2c(C(F)(F)Cl)nc3n(c2=O)CCC3)=NO1 [Compound 18]
- Plant response rating, Lambsquarters ([1]; 16 g ai/ha): 0
- Plant response rating, Lambsquarters ([1]; 31 g ai/ha): 0
- Plant response rating, Lambsquarters ([1]; 62 g ai/ha): 75
- Plant response rating, Lambsquarters ([1]; 125 g ai/ha): 85
- Plant response rating, Velvetleaf ([2]; 125 g ai/ha): 30
- Plant response rating, Velvetleaf ([2]; 500 g ai/ha): 60
- Plant response rating, Pigweed ([3]; 125 g ai/ha): 30
- Plant response rating, Pigweed ([3]; 500 g ai/ha): 40
- Plant response rating, Crabgrass, Large ([4]; 16 g ai/ha): 0
- Plant response rating, Crabgrass, Large ([4]; 31 g ai/ha): 70
- Plant response rating, Crabgrass, Large ([4]; 62 g ai/ha): 90
- Plant response rating, Crabgrass, Large ([4]; 125 g ai/ha): 100
- Plant response rating, Crabgrass, Large ([5]; 125 g ai/ha): 60
- Plant response rating, Crabgrass, Large ([5]; 500 g ai/ha): 90
- Plant response rating, Wheat ([6]; 16 g ai/ha): 0
- Plant response rating, Wheat ([6]; 31 g ai/ha): 0
- Plant response rating, Wheat ([6]; 62 g ai/ha): 50
- Plant response rating, Ragweed ([7]; 16 g ai/ha): 0
- Plant response rating, Ragweed ([7]; 31 g ai/ha): 0
- Plant response rating, Ragweed ([7]; 62 g ai/ha): 0
- Plant response rating, Ragweed ([7]; 125 g ai/ha): 0
- Plant response rating, Ryegrass, Italian ([8]; 16 g ai/ha): 0
- Plant response rating, Ryegrass, Italian ([8]; 31 g ai/ha): 0
- Plant response rating, Ryegrass, Italian ([8]; 62 g ai/ha): 35
- Plant response rating, Ryegrass, Italian ([8]; 125 g ai/ha): 40
- Plant response rating, Blackgrass ([9]; 16 g ai/ha): 0
- Plant response rating, Blackgrass ([9]; 31 g ai/ha): 0
- Plant response rating, Blackgrass ([9]; 62 g ai/ha): 10
- Plant response rating, Blackgrass ([9]; 125 g ai/ha): 98
- Plant response rating, Wheat ([10]; 125 g ai/ha): 0
- Plant response rating, Wheat ([10]; 500 g ai/ha): 60
- Plant response rating, Rice (rice (Oryza sativa); 31 g ai/ha): 0
- Plant response rating, Rice (rice (Oryza sativa); 62 g ai/ha): 0
- Plant response rating, Rice (rice (Oryza sativa); 125 g ai/ha): 0
- Plant response rating, Rice (rice (Oryza sativa); 250 g ai/ha): 0
- Plant response rating, Morningglory ([11]; 125 g ai/ha): 0
- Plant response rating, Morningglory ([11]; 500 g ai/ha): 50
- Plant response rating, Morningglory ([12]; 125 g ai/ha): 30
- Plant response rating, Morningglory ([12]; 500 g ai/ha): 60
- Plant response rating, Bermudagrass ([13]; 16 g ai/ha): 0
- Plant response rating, Bermudagrass ([13]; 31 g ai/ha): 98
- Plant response rating, Bermudagrass ([13]; 62 g ai/ha): 100
- Plant response rating, Bermudagrass ([13]; 125 g ai/ha): 100
- Plant response rating, Morningglory ([14]; 16 g ai/ha): 0
- Plant response rating, Morningglory ([14]; 31 g ai/ha): 0
- Plant response rating, Morningglory ([14]; 62 g ai/ha): 0
- Plant response rating, Morningglory ([14]; 125 g ai/ha): 45
- Plant response rating, Corn (corn (Zea mays); 16 g ai/ha): 0
- Plant response rating, Corn (corn (Zea mays); 31 g ai/ha): 0
- Plant response rating, Corn (corn (Zea mays); 62 g ai/ha): 0
- Plant response rating, Corn (corn (Zea mays); 125 g ai/ha): 0
- Plant response rating, Goosegrass ([15]; 16 g ai/ha): 0
- Plant response rating, Goosegrass ([15]; 31 g ai/ha): 95
- Plant response rating, Goosegrass ([15]; 62 g ai/ha): 98
- Plant response rating, Goosegrass ([15]; 125 g ai/ha): 98
- Plant response rating, Cupgrass, Woolly ([16]; 16 g ai/ha): 0
- Plant response rating, Cupgrass, Woolly ([16]; 31 g ai/ha): 20
- Plant response rating, Cupgrass, Woolly ([16]; 62 g ai/ha): 65
- Plant response rating, Cupgrass, Woolly ([16]; 125 g ai/ha): 95
- Plant response rating, Wheat ([17]; 125 g ai/ha): 0
- Plant response rating, Wheat ([17]; 500 g ai/ha): 30

Compound: CC1(C)CC(S(=O)(=O)Cc2c(C(F)(F)F)nc3n(c2=O)CCS3)=NO1 [Compound 6]
- Plant response rating, Lambsquarters ([1]; 16 g ai/ha): 0
- Plant response rating, Lambsquarters ([1]; 31 g ai/ha): 20
- Plant response rating, Lambsquarters ([1]; 62 g ai/ha): 90
- Plant response rating, Lambsquarters ([1]; 125 g ai/ha): 95
- Plant response rating, Velvetleaf ([2]; 125 g ai/ha): 60
- Plant response rating, Velvetleaf ([2]; 500 g ai/ha): 80
- Plant response rating, Pigweed ([3]; 125 g ai/ha): 50
- Plant response rating, Pigweed ([3]; 500 g ai/ha): 90
- Plant response rating, Crabgrass, Large ([4]; 16 g ai/ha): 95
- Plant response rating, Crabgrass, Large ([4]; 31 g ai/ha): 100
- Plant response rating, Crabgrass, Large ([4]; 62 g ai/ha): 100
- Plant response rating, Crabgrass, Large ([4]; 125 g ai/ha): 100
- Plant response rating, Crabgrass, Large ([5]; 125 g ai/ha): 80
- Plant response rating, Crabgrass, Large ([5]; 500 g ai/ha): 90
- Plant response rating, Wheat ([6]; 16 g ai/ha): 0
- Plant response rating, Wheat ([6]; 31 g ai/ha): 0
- Plant response rating, Wheat ([6]; 62 g ai/ha): 0
- Plant response rating, Wheat ([6]; 125 g ai/ha): 0
- Plant response rating, Ragweed ([7]; 16 g ai/ha): 0
- Plant response rating, Ragweed ([7]; 31 g ai/ha): 0
- Plant response rating, Ragweed ([7]; 62 g ai/ha): 25
- Plant response rating, Ragweed ([7]; 125 g ai/ha): 35
- Plant response rating, Ryegrass, Italian ([8]; 16 g ai/ha): 0
- Plant response rating, Ryegrass, Italian ([8]; 31 g ai/ha): 15
- Plant response rating, Ryegrass, Italian ([8]; 62 g ai/ha): 80
- Plant response rating, Ryegrass, Italian ([8]; 125 g ai/ha): 95
- Plant response rating, Blackgrass ([9]; 16 g ai/ha): 50
- Plant response rating, Blackgrass ([9]; 31 g ai/ha): 80
- Plant response rating, Blackgrass ([9]; 62 g ai/ha): 95
- Plant response rating, Blackgrass ([9]; 125 g ai/ha): 95
- Plant response rating, Wheat ([10]; 125 g ai/ha): 20
- Plant response rating, Wheat ([10]; 500 g ai/ha): 30
- Plant response rating, Rice (rice (Oryza sativa); 62 g ai/ha): 20
- Plant response rating, Rice (rice (Oryza sativa); 250 g ai/ha): 20
- Plant response rating, Morningglory ([11]; 125 g ai/ha): 90
- Plant response rating, Morningglory ([11]; 500 g ai/ha): 100
- Plant response rating, Morningglory ([12]; 125 g ai/ha): 40
- Plant response rating, Morningglory ([12]; 500 g ai/ha): 50
- Plant response rating, Bermudagrass ([13]; 16 g ai/ha): 100
- Plant response rating, Bermudagrass ([13]; 31 g ai/ha): 100
- Plant response rating, Bermudagrass ([13]; 62 g ai/ha): 100
- Plant response rating, Bermudagrass ([13]; 125 g ai/ha): 100
- Plant response rating, Morningglory ([14]; 16 g ai/ha): 0
- Plant response rating, Morningglory ([14]; 31 g ai/ha): 0
- Plant response rating, Morningglory ([14]; 62 g ai/ha): 0
- Plant response rating, Morningglory ([14]; 125 g ai/ha): 0
- Plant response rating, Corn (corn (Zea mays); 16 g ai/ha): 0
- Plant response rating, Corn (corn (Zea mays); 31 g ai/ha): 0
- Plant response rating, Corn (corn (Zea mays); 62 g ai/ha): 0
- Plant response rating, Corn (corn (Zea mays); 125 g ai/ha): 0
- Plant response rating, Goosegrass ([15]; 16 g ai/ha): 100
- Plant response rating, Goosegrass ([15]; 31 g ai/ha): 100
- Plant response rating, Goosegrass ([15]; 62 g ai/ha): 100
- Plant response rating, Goosegrass ([15]; 125 g ai/ha): 100
- Plant response rating, Cupgrass, Woolly ([16]; 16 g ai/ha): 60
- Plant response rating, Cupgrass, Woolly ([16]; 31 g ai/ha): 98
- Plant response rating, Cupgrass, Woolly ([16]; 62 g ai/ha): 98
- Plant response rating, Cupgrass, Woolly ([16]; 125 g ai/ha): 100
- Plant response rating, Wheat ([17]; 125 g ai/ha): 0
- Plant response rating, Wheat ([17]; 500 g ai/ha): 0
